Series [1] concerns Mus musculus. Description: Modulation of cardiovascular activity in mouse assessed as inhibition of carotid occlusion-induced pressure response at 2.5 mg/kg. Type of series: functional, organism-based.
Series [2] has as its system Mus musculus. Description: Hypotensive activity in mouse assessed as decrease in delayed blood pressure at 2.5 mg/kg. Type of series: functional.
Series [3] concerns Mus musculus. Description: Analgesic activity in mouse assessed as time duration at which maximum change in tail flick latency occurs at 10 mg/kg (reference value: 60 mins). In kind it is functional. Background: Hot-plate and tail-flick tests time the reaction to a heat stimulus.
Series [4] deals with Mus musculus. Description: Hypotensive activity in mouse assessed as decrease in heart rate at 2.5 mg/kg. In kind it is functional.
The subject of series [5] is Mus musculus. Description: Hypotensive activity in mouse assessed as decrease in immediate blood pressure at 2.5 mg/kg. In kind it is functional.
For series [6], the system named is Mus musculus. Description: Antiaggressive activity in mouse assessed as reduction in foot shock induced fighting behavior by measuring fighting count at 10 mg/kg, ip (reference value: 6.6 to 24.3 counts). In kind it is functional.
In series [7] the test system is Mus musculus. Description: Modulation of cardiovascular activity in mouse assessed as inhibition of norepinephrine induced pressure response at 2.5 mg/kg. In kind it is functional, organism-based.
Series [8] concerns Mus musculus. Description: Analgesic activity in mouse assessed as maximum change in tail flick latency time at 10 mg/kg (reference value: 0.7 secs). In kind it is functional.
Series [9] relates to Mus musculus. Description: Antidepressant activity in mouse assessed as total mean swimming time time at 5 mg/kg, ip (reference value: 2.08 to 3.12 min). Type of series: functional.
Series [10] in a line: Toxicity in mouse. In kind it is organism-based. Particulars: in vivo, read-out: ALD50.
For series [11], the system named is Mus musculus. Description: Modulation of cardiovascular activity in mouse assessed as potentiation of norepinephrine induced pressure response at 2.5 mg/kg. In kind it is functional, organism-based.
Series [12] deals with Mus musculus. Description: Antidepressant activity in mouse assessed as total mean swimming time at 15 mg/kg (reference value: 2.98 min). Type of series: functional.
The species named for series [13] is Mus musculus. To be noted: dose 10.0 mg/kg.
Description: Modulation of cardiovascular activity in mouse assessed as inhibition of norepinephrine induced pressure response at 10 mg/kg
Series [14] is filed under the species Mus musculus. Particulars: dose 10.0 mg/kg. This is another data set of the same source.
Description: Modulation of cardiovascular activity in mouse assessed as inhibition of carotid occlusion-induced pressure response at 10 mg/kg

Activity calls are given as the source filed them. The rule behind the calls is not given here.

`CC1=N/C(=C\c2ccccc2)C(=O)N1c1ccc(O)cc1`: the inhibition entry with Mus musculus [1] and in the series with Mus musculus [7] was “Active” throughout. Besides, the Activity is given as 70 mmHg in the series on Mus musculus [2], 12 bpm in the series with Mus musculus [4], 15 mmHg in the series on Mus musculus [5] and 8.6 Counts in the series with Mus musculus [6]. The Time is listed as 60 min in the series with Mus musculus [3], 6.4 s in the series with Mus musculus [8] and 2.74 min in the series on Mus musculus [9]. In addition, the LD50 in [10] is > 200 mg/kg.
Turning to `CC1=N/C(=C\c2ccccc2)C(=O)O1`, the inhibition entry in the series with Mus musculus [1] was “Active”. In addition, the Activity in the series with Mus musculus [2] was 40 mmHg; in the series with Mus musculus [4], 36 bpm; in the series with Mus musculus [5] it was 25 mmHg; in the series on Mus musculus [6], 6 Counts. Also, the Time in the series with Mus musculus [3] was found to be 60 min; in the series on Mus musculus [8], 1.3 s; in the series with Mus musculus [9], 1.72 min. Further, the outcome in the series with Mus musculus [11] was Active. In addition, in series [10], the LD50 is > 500 mg/kg.
Consider `CN(C)c1ccc(/C=C2\N=C(CCN3CCOCC3)N(c3ccc(O)cc3)C2=O)cc1`, for which the inhibition entry in the series on Mus musculus [1] is “Active”. Also, the Activity in the series on Mus musculus [2] turned out to be 37 mmHg; with Mus musculus [4], 30 bpm; in the series on Mus musculus [5], 15 mmHg; with Mus musculus [6] it was 4.5 Counts. The Time in the series with Mus musculus [3] is 60 min; with Mus musculus [8] it was 2.6 s; in the series with Mus musculus [9], 0.5 min. In the series with Mus musculus [11], the outcome was Active. In [10], the LD50 is > 500 mg/kg.
As for `O=C1/C(=C/c2ccoc2)N=C(CCN2CCOCC2)N1c1ccc(O)cc1`, the inhibition result in the series with Mus musculus [1] is “Active”. In addition, the Activity with Mus musculus [2] was 20 mmHg; with Mus musculus [4], 18 bpm; with Mus musculus [5], 35 mmHg; in the series with Mus musculus [6] it was 6.6 Counts. For the same compound, the Time in the series on Mus musculus [3] is listed as 30 min; in the series on Mus musculus [8], 5.2 s; in the series on Mus musculus [9] it was 1.3 min. In addition, in the series on Mus musculus [11], the outcome was Active. Further, in series [10], the LD50 was > 1000 mg/kg.
For the compound `CC1=N/C(=C\c2ccoc2)C(=O)N1c1ccc(OCC2CO2)cc1` (configuration not stated), the inhibition result with Mus musculus [1] was “Active”. In addition, the Activity in the series on Mus musculus [2] came to 20 mmHg; with Mus musculus [4], 6 bpm; in the series on Mus musculus [5] it was 30 mmHg; with Mus musculus [6], 5 Counts. Moreover, the Time in the series with Mus musculus [3] was determined as 60 min; with Mus musculus [8], 6.4 s; in the series with Mus musculus [9], 1.14 min. The result in the series with Mus musculus [11] was Active. Further, the LD50 in series [10] was > 1000 mg/kg.
As to `CC1=N/C(=C\c2ccccc2)C(=O)N1c1ccc(OCC2CO2)cc1` (configuration not stated), in the series with Mus musculus [1], the inhibition entry was “Active”. The Activity in the series with Mus musculus [2] amounted to 45 mmHg; with Mus musculus [4], 21 bpm; with Mus musculus [5], 25 mmHg; in the series with Mus musculus [6] it was 6.3 Counts. Moreover, the Time was 60 min with Mus musculus [3], 8.5 s in the series with Mus musculus [8] and 1.68 min in the series on Mus musculus [9]. The outcome in the series on Mus musculus [11] was Active. Besides, the LD50 in [10] is > 500 mg/kg.
Take `CC1=N/C(=C\c2ccccc2)C(=O)N1c1ccc(OCC(O)CNc2ccc(Cl)cc2)cc1` (configuration not stated): in the series with Mus musculus [1], the inhibition entry was “Active”. The Activity in the series with Mus musculus [2] worked out at 17 mmHg; in the series with Mus musculus [4], 6 bpm; in the series with Mus musculus [5], 50 mmHg; in the series on Mus musculus [6] it was 11.3 Counts. For the same compound, the Time in the series with Mus musculus [3] is recorded as 60 min; in the series with Mus musculus [8], 4.5 s; with Mus musculus [9], 1.6 min. In the series with Mus musculus [11], the outcome was Active. In addition, the LD50 in series [10] is > 200 mg/kg.
Regarding `CN(C)CCCN1c2ccccc2CCc2ccccc21` [IMIPRAMINE], the Time in the series with Mus musculus [12] was 2.33 min.
In the case of `O=C1/C(=C/c2ccccc2)N=C(CCN2CCOCC2)N1c1ccc(O)cc1`, the inhibition result with Mus musculus [1] was “Active”. Further, the Activity in the series with Mus musculus [2] was 15 mmHg; with Mus musculus [4] it was 15 bpm; with Mus musculus [5], 35 mmHg; in the series on Mus musculus [6], 21.6 Counts. Besides, the Time is on record as 60 min in the series with Mus musculus [3], 4 s with Mus musculus [8] and 0.84 min in the series on Mus musculus [9]. Also, the result in the series with Mus musculus [11] was inactive. Moreover, the inhibition entry in the series on Mus musculus [7] is “inactive”. Besides, the LD50 in [10] was > 500 mg/kg.
Regarding `CC1=N/C(=C\c2ccc(N(C)C)cc2)C(=O)N1c1ccc(OCC2CO2)cc1` (configuration not stated), the inhibition result in the series on Mus musculus [1] and with Mus musculus [7] was “Active” each time. Moreover, the Activity in the series with Mus musculus [2] stood at 28 mmHg; in the series with Mus musculus [4], 24 bpm; in the series with Mus musculus [5], 60 mmHg; with Mus musculus [6], 10.3 Counts. In addition, the figures for the Time with Mus musculus [3], in the series on Mus musculus [8] and in the series on Mus musculus [9] were 30 min, 3.8 s and 1.31 min, respectively. In [10], the LD50 is > 500 mg/kg.
For the compound `Clc1cccc(Cl)c1NC1=NCCN1`, the inhibition result in the series filed under Mus musculus [13] and in the series filed under Mus musculus [14] was “Active” throughout.
`CC1=N/C(=C\c2ccoc2)C(=O)N1c1ccc(O)cc1`: the inhibition entry with Mus musculus [1] and in the series on Mus musculus [7] was “inactive” each time. For the same compound, the Activity in the series on Mus musculus [2] stood at 20 mmHg; in the series on Mus musculus [4], 18 bpm; in the series on Mus musculus [5], 20 mmHg; with Mus musculus [6] it was 4.6 Counts. The results for the Time in the series with Mus musculus [3], in the series with Mus musculus [8] and in the series with Mus musculus [9] were 60 min, 1.3 s and 2.52 min, respectively. Also, in the series on Mus musculus [11], the outcome was inactive. In [10], the LD50 is > 500 mg/kg.
In the case of `CC1=N/C(=C\c2ccc(N(C)C)cc2)C(=O)O1`, the inhibition result in the series on Mus musculus [1] is “Active”. Further, the Activity with Mus musculus [2] worked out at 15 mmHg; in the series with Mus musculus [6], 7.3 Counts. The figures for the Time in the series with Mus musculus [3], with Mus musculus [8] and in the series on Mus musculus [9] were 60 min, 1.8 s and 1.5 min, respectively. The outcome with Mus musculus [11] was Active. For the same compound, the result in the series on Mus musculus [4] and with Mus musculus [5] was inactive. The LD50 in series [10] was > 500 mg/kg.
For the compound `CC1=N/C(=C\c2ccc(N(C)C)cc2)C(=O)N1c1ccc(O)cc1`, in the series with Mus musculus [1], the inhibition entry is “Active”. The Activity with Mus musculus [2] stood at 50 mmHg; with Mus musculus [4] it was 27 bpm; in the series on Mus musculus [5] it was 25 mmHg; with Mus musculus [6], 1.6 Counts. The Time in the series with Mus musculus [3] worked out at 30 min; in the series on Mus musculus [8], 0.1 s; with Mus musculus [9] it was 0.42 min. Also, the outcome in the series with Mus musculus [11] was Active. Further, the LD50 in [10] is > 500 mg/kg.
On to `CC1=N/C(=C\c2ccc(N(C)C)cc2)C(=O)N1c1ccc(OCC(O)CNc2ccc(Cl)cc2)cc1` (configuration not stated), for which the inhibition entry in the series on Mus musculus [1] was “Active”. Also, the Activity in the series on Mus musculus [2] was 30 mmHg; with Mus musculus [4] it was 21 bpm; in the series with Mus musculus [5], 15 mmHg; in the series with Mus musculus [6] it was 4.8 Counts. Moreover, the Time is reported as 30 min with Mus musculus [3], 0.9 s in the series with Mus musculus [8] and 0.84 min in the series with Mus musculus [9]. Moreover, in the series with Mus musculus [11], the result was Active. Also, in series [10], the LD50 was > 500 mg/kg.
As for `CC1=N/C(=C\c2ccoc2)C(=O)N1c1ccc(OCC(O)CNc2ccc(Cl)cc2)cc1` (configuration not stated), the inhibition entry with Mus musculus [1] and in the series on Mus musculus [7] was “inactive” each time. Besides, the Activity in the series with Mus musculus [2] was found to be 20 mmHg; in the series with Mus musculus [4] it was 27 bpm; in the series on Mus musculus [5] it was 25 mmHg; with Mus musculus [6] it was 10.6 Counts. Besides, the Time with Mus musculus [3] was found to be 30 min; with Mus musculus [8], 6.9 s; in the series with Mus musculus [9], 2.83 min. In addition, the outcome in the series with Mus musculus [11] was inactive. Also, the LD50 in series [10] is > 500 mg/kg.
In the case of `CC1=N/C(=C\c2ccoc2)C(=O)O1`, the inhibition result in the series with Mus musculus [1] and with Mus musculus [7] was “inactive” each time. The result in the series on Mus musculus [2], with Mus musculus [11], in the series on Mus musculus [4] and in the series on Mus musculus [5] was inactive. For the same compound, the Time is 15 min with Mus musculus [3], 8.8 s in the series with Mus musculus [8] and 2.64 min with Mus musculus [9]. For the same compound, the Activity with Mus musculus [6] stood at 6 Counts. In addition, the LD50 in series [10] is > 500 mg/kg.

Source of the values: ChEMBL document CHEMBL4665849, “Synthesis and biological evaluation of imidazoline derivatives as potential CNS and CVS agents” (Bioorg Med Chem Lett, 2020).
